Experimental data published in patent US20230142739A1, “PROTEIN-PROTEIN INTERACTION STABILIZERS” (The Regents of the University of California, priority 2020, published 2023).

Key:
Assay type in all cases: binding
Abl1pT735/14-3-3 = biological target: T1, Abl1pT735/14-3-3 (Homo sapiens, UniProt P61981); assay: Selectivity screening FA, Abl1pT735 peptide; details: 100 μM fragment
T1 construct: the full length 14-3-3γ was dialysis against 25 mM HEPES pH 7.5; made in house; host or cells: E. coli BL21(DE3), pPROEX HTb
Protocol: (§1) Selectivity screening of covalent fragments. Drugging the hub protein 14-3-3 raises the challenge of selectivity.
(§2) This was investigated by comparing the effect of 13, 27 and 28 on 14-3-3 interaction partners with a leucine (Abl1pT735), isoleucine (p65pS45), or valine (CFTRpS753) at the +1 position.
(§3) Fluorescence Anisotropy (FA) Assays. […] All FA assays were measured in FA buffer (10 mM HEPES pH 7.4, 150 mM NaCl, 0.1% Tween20, 1% BSA) in Corning 384 well plates (black, round bottom, low binding). Plates were incubated overnight prior to anisotropy measurements with the Tecan Infinite 500 plate reader (λexcitation=485 nm, λemission=535 nm).

C-Raf peptide/14-3-3 = biological target: T2, C-Raf peptide/14-3-3 (Homo sapiens, UniProt P61981); assay: Selectivity screening FA, C-Raf peptide; details: 100 μM fragment
T2 construct: the full length 14-3-3γ was dialysis against 25 mM HEPES pH 7.5; made in house; host or cells: E. coli BL21(DE3), pPROEX HTb
Text: (§4) Selectivity screening of covalent fragments. Drugging the hub protein 14-3-3 raises the challenge of selectivity. We hypothesized that the high level of cooperative behavior for 14-3-3/Pin1_72/28 complex is a function of the unique functionality and topology of the interface, specifically the +1 and +3 amino acid of Pin1_72 with the covalent fragment. We further rationalized that this cooperativity would likely translate to high selectivity. To test this hypothesis, fragments 13, 27 and 28 were screened at a single fragment concentration (100 μM) against a panel of 13 peptides as diverse representatives of 14-3-3 client proteins, differing in size and hydrophobicity of the +1 amino acid (FIG. 22A).
(§5) Fluorescence Anisotropy (FA) Assays.

B-Raf_729 peptide/14-3-3 = biological target: T3, B-Raf_729 peptide/14-3-3 (Homo sapiens, UniProt P61981); assay: Selectivity screening FA, B-Raf_729 peptide; details: 100 μM fragment
T3 construct: the full length 14-3-3γ was dialysis against 25 mM HEPES pH 7.5; made in house; host or cells: E. coli BL21(DE3), pPROEX HTb
Text: as §4, §5

14-3-3/ERα complex = biological target: T4, 14-3-3/ERα complex (Homo sapiens, UniProt P61981); assay: Selectivity screening FA, ERα peptide; details: 100 μM fragment
T4 construct: the full length 14-3-3γ was dialysis against 25 mM HEPES pH 7.5; made in house; host or cells: E. coli BL21(DE3), pPROEX HTb
T4 sequence (P61981 1-247): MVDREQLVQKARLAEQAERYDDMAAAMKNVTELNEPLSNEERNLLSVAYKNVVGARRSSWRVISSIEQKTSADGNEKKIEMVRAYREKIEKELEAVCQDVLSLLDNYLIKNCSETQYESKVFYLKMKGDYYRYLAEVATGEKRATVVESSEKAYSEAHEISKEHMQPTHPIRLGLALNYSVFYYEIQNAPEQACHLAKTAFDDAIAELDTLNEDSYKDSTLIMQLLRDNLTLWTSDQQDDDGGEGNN
Text: as §4, §5

14-3-3/Pin1_72 complex = biological target: T5, 14-3-3/Pin1_72 complex (Homo sapiens, UniProt P61981); assay: Cooperativity analysis, 14-3-3 titrations at varied constant fragment concentration
T5 construct: the full length 14-3-3γ was dialysis against 25 mM HEPES pH 7.5; made in house; host or cells: E. coli BL21(DE3), pPROEX HTb
Text: Cooperativity in ternary complex formation. In contrast to PPI inhibition, where affinity to one of the protein pockets is the driving force for drug development, design of molecular glues is driven by cooperative ternary complex formation. Both CC50 and SF values are concentration dependent values and might differ based on assay design. […] Cooperative complex formation is often accompanied by structural changes of the interface of a complex which translates to increased stability of the ternary com-plex. In order to assess cooperativity of the ternary complex, fragments 13, 23, 27 and 28 were selected for cooper-activity analysis. The α-factor of the fragments were determined using 14-3-3 titrations in the presence of varied, but constant concentration of fragment in a dose-dependent manner. […] Further, the interval of change in stabilization further describes the systems cooperative behaviour.
However, at higher concentration regimes significant assay interference was observed, probably due to compound aggregation. Fragments 23, 27 and 28 all reached saturation or approached saturation enabling accurate determination of α-factor. […] KD remains constant also at higher concentrations of FC-A, indicating non-specific effects.

[1] = biological target: T6, Raptor/14-3-3γ binary complex (Homo sapiens, UniProt P61981); assay: Selectivity screening FA, Raptor peptide; details: 100 μM fragment
T6 construct: the full length 14-3-3γ was dialysis against 25 mM HEPES pH 7.5; made in house; host or cells: E. coli BL21(DE3), pPROEX HTb
Text: as §4
Following the importance of the tryptophan for complex stabilization of Pin1_72/14-3-3γ with the benzaldehydes, the influence of phenylalanine (AS160) and tyrosine (Raptor) were investigated (FIGS. 22A-22B). […] Unlike Pin1_72, the C-terminus of AS160 engages Phe+1 in intramolecular hydrophobic contacts with Pro+4 and Pro+5. The +1 phenylalanine likely cannot rearrange to allow fragment binding.
as §5

CFTRpS753/14-3-3 = biological target: T7, CFTRpS753/14-3-3 (Homo sapiens, UniProt P61981); assay: Selectivity screening FA, CFTRpS753 peptide; details: 100 μM fragment
T7 construct: the full length 14-3-3γ was dialysis against 25 mM HEPES pH 7.5; made in house; host or cells: E. coli BL21(DE3), pPROEX HTb
T7 sequence (P13569 747-774 partner limits assumed, one chain of several): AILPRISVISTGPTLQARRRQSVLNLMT
Protocol: as §1, §2, §3

TBC1D237 peptide/14-3-3 = biological target: T8, TBC1D237 peptide/14-3-3 (Homo sapiens, UniProt P61981); assay: Selectivity screening FA, TBC1D237 peptide; details: 100 μM fragment
T8 construct: the full length 14-3-3γ was dialysis against 25 mM HEPES pH 7.5; made in house; host or cells: E. coli BL21(DE3), pPROEX HTb
Text: as §4, §5

p65pS45/14-3-3 = biological target: T9, p65pS45/14-3-3 (Homo sapiens, UniProt P61981); assay: Selectivity screening FA, p65pS45 peptide; details: 100 μM fragment
T9 construct: the full length 14-3-3γ was dialysis against 25 mM HEPES pH 7.5; made in house; host or cells: E. coli BL21(DE3), pPROEX HTb
T9 sequence (as listed by the source partner, one chain of several): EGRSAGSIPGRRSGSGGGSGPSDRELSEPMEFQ
Protocol: as §1, §2, §3

ERRγ_179 peptide/14-3-3 = biological target: T10, ERRγ_179 peptide/14-3-3 (Homo sapiens, UniProt P61981); assay: Selectivity screening FA, ERRγ_179 peptide; details: 100 μM fragment
T10 construct: the full length 14-3-3γ was dialysis against 25 mM HEPES pH 7.5; made in house; host or cells: E. coli BL21(DE3), pPROEX HTb
Text: as §4, §5

Mypt1_472 peptide/14-3-3 = biological target: T11, Mypt1_472 peptide/14-3-3 (Homo sapiens, UniProt P61981); assay: Selectivity screening FA, Mypt1_472 peptide; details: 100 μM fragment
T11 construct: the full length 14-3-3γ was dialysis against 25 mM HEPES pH 7.5; made in house; host or cells: E. coli BL21(DE3), pPROEX HTb
Text: as §4, §5

14-3-3/p65 = biological target: T12, 14-3-3/p65 (Homo sapiens, UniProt P61981); assay: Cooperativity analysis of the 14-3-3/p65/28 complex; details: 1 mM compound; saturation not achieved
T12 construct: the full length 14-3-3γ was dialysis against 25 mM HEPES pH 7.5; made in house; host or cells: E. coli BL21(DE3), pPROEX HTb
T12 sequence (as listed by the source partner, one chain of several): as above
Protocol: Finally, we performed a cooperativity analysis of the 14-3-3/p65/28 complex to investigate how these structural observations translate to cooperativity. For the 14-3-3/p65/28 complex, saturation of the system was not achieved at concentration ≤1 mM with SF1 mM=37. […] The cooperative interactions within the 14-3-3/Pin1/28 complex are thus significant driving factors for the selective stabilization.

Pin1_72/14-3-3γ = biological target: T13, Pin1_72/14-3-3γ (Homo sapiens, UniProt P61981+Q13526); assay: FA protein titrations in presence of 100 μM fragment, 13 representative 14-3-3/peptide interactions; details: 14-3-3γ titrations
T13 construct: the full length 14-3-3γ was dialysis against 25 mM HEPES pH 7.5; made in house; host or cells: E. coli BL21(DE3), pPROEX HTb
Protocol: FIGS. 22A-22F. […] FIG. 22A: Radar plot of the SFs determined by FA protein titrations in presence of 100 μM fragment. […] Right: close-up. FIG. 22B: The SF values determined with 14-3-3γ titrations in presence of 100 μM 13, 27 or 28 in FA assays (n=2). FIG. 22C: Structural overlay of the known 14-3-3 binding epitopes used in this study. FIG. 22D: Overlay of the binding pose of 13, 27 and 28 (line representation) with the AS160 binding epitope (PDB: 7NIX). FIG. 22E: Overlay of crystal structures of 13 (2Fo-Fc map at 1 as mesh) binding to the p65_45 (violet sticks, carton)/14-3-3γ complex (PDB: 7NQP) and the CFTR (cyan sticks, cartoon)/14-3-3 complex (PDB: 5D3F, FC-A hidden for clarity). Hydrophobic contacts between 13 and Ile+1 of p65 and Val+1 of CFTR are indicated by transparent spheres.

Row | SMILES | stabilizing activity, Abl1pT735 (Abl1pT735/14-3-3) | stabilization, C-Raf (C-Raf peptide/14-3-3) | stabilization, B-Raf_729 (B-Raf_729 peptide/14-3-3) | stabilization, ERα (14-3-3/ERα complex) | cooperativity factor (α-factor) (14-3-3/Pin1_72 complex) | stabilization of the Raptor/14-3-3γ binary complex [1] [fold] | SF, CFTR (CFTRpS753/14-3-3) | stabilizing activity, CFTRpS753 (CFTRpS753/14-3-3) | stabilization, TBC1D237 (TBC1D237 peptide/14-3-3) | stabilizing activity, p65pS45 (p65pS45/14-3-3) | stabilization, ERRγ_179 (ERRγ_179 peptide/14-3-3) | stabilization, Mypt1_472 (Mypt1_472 peptide/14-3-3) | concentration necessary to induce a 2-fold increase in PPI stabilization (14-3-3/Pin1_72 complex) [µM] | stabilization of the Pin1/14-3-3 complex (14-3-3/Pin1_72 complex) [fold] | SF1 mM (14-3-3/p65) | selectivity of stabilization among 13 14-3-3/peptide interactions (Pin1_72/14-3-3γ)
1 | O=Cc1ccc(-n2ccnc2-c2cc(Br)ccc2F)cc1Br [compound 27, 2-bromo-4-(2-(5-bromo-2-fluorophenyl)-1H-imidazol-1-yl)benzaldehyde] | some stabilizing activity | abolishes any stabilizing effect | no significant stabilization | not responsive to fragment stabilization | approximately 60 | 9.5 | 12.5 | some stabilizing activity | no significant stabilization | some stabilizing activity | no significant stabilization | no significant stabilization | – | – | – | –
2 | O=Cc1ccc(-n2ccnc2-c2ccc(F)cc2F)cc1Br [compound 28, 2-bromo-4-(2-(2,4-difluorophenyl)-1H-imidazol-1-yl)benzaldehyde] | no significant complex stabilization | abolishes any stabilizing effect | no significant stabilization | not responsive to fragment stabilization | 270 | – | – | no significant complex stabilization | no significant stabilization | no significant complex stabilization | no significant stabilization | no significant stabilization | 1 | 270 | 37 | selective stabilization of the 14-3-3/Pin1_72 complex
